The record followed here is patent US8163768B2, “1,4-dihydropyridine-fused heterocycles, process for preparing the same, use and compositions containing them” (Aventis Pharma S.A.., priority 2005, dated 2012).

For assay [1], the target named is T1, Aurora2 (Aurora-A) (Homo sapiens, UniProt O14965).
T1 construct: Aurora-A: the full length recombinant protein including an N-terminal poly-histidine tail has been expressed in E. coli; poly-histidine (N); made in house; host or cells: E. coli
T1 sequence (O14965 1-403): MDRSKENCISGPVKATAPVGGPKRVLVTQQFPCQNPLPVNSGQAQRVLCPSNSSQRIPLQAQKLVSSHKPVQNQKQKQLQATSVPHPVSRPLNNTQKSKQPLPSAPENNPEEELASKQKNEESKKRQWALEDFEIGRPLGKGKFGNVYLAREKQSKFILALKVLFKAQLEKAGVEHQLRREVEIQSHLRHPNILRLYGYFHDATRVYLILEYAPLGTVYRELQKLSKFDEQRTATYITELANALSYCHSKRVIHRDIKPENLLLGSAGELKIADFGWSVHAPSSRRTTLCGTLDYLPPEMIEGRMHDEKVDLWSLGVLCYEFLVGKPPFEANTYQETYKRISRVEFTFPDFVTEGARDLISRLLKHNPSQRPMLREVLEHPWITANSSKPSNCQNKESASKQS
The experiment in a line: Aurora 2 (Aurora A) kinase radioactivity scintillation assay using nickel chelate Flash plates. Type of assay: biochemical. The conditions noted are these: 10 nM Aurora-A, 500 nM NuMA substrate, 1 μM ATP with [33P] ATP, 10 mM MgCl2, 30 minutes, 37° C. An outline of the steps:
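10 nM Aurora-B or Aurora-A with 500 nM NuMA-His substrate, 1 μM ATP plus [³³P]ATP, in 50 mM NaCl, 1 mM DTT and 5 mM (B) or 10 mM (A) MgCl2, 30 min at 37° C on nickel-chelate plates. Incorporated ³³P counted after washing, background-subtracted; IC50 fitted from % inhibition versus concentration.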

In assay [2] the target is T2, Aurora1 (Aurora-B) (Homo sapiens, UniProt Q96GD4).
T2 construct: Aurora-B: the full length protein (His tagged in N-terminal) has been co expressed in SF9 cells; poly-histidine (N); made in house; host or cells: SF9 cells
T2 sequence (Q96GD4 whole entry, species assumed): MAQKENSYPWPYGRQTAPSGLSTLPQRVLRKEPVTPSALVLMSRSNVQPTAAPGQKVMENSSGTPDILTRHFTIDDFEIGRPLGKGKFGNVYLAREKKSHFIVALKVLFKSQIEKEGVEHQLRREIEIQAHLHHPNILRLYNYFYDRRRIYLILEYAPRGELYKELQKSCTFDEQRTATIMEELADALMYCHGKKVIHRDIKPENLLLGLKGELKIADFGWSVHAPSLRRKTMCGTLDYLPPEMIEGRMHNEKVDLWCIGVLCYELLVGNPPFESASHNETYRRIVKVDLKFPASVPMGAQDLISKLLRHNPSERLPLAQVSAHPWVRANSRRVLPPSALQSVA
T2 sequence (Q9NQS7 821-918 partner limits assumed, species assumed): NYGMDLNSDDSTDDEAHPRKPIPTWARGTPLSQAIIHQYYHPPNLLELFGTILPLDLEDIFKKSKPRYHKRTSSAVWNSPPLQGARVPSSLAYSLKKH
The assay is described as follows: Aurora 1 (Aurora B) kinase radioactivity scintillation assay using nickel chelate Flash plates. It counts as biochemical. As to conditions: 10 nM Aurora-B (co expressed with C3 fragment of INCEP), 500 nM NuMA substrate, 1 μM ATP with [33P] ATP, 5 mM MgCl2, 30 minutes, 37° C. The protocol:
Aurora 1 and 2 (Respectively. Aurora B and A)
The inhibitory effect of compounds with respect to the Aurora 1 and 2 kinases is determined with a radioactivity scintillation assay using nickel chelate.
The kinase activity of Aurora is measured by the phosphorylation of NuMA-histidine substrate in the presence of radiolabelled ATP ([^33P] ATP) using 96 well Flash plates where the nickel-chelate is linked to the surface of the microplate. The amount of ^33P incorporated to the substrate NuMA is proportional to the aurora activity.
The Flash plates used are nickel-chelate 96 well plates (Perkin Elmer, model SMP107).
The products to be evaluated are incubated in a 100 μl reaction volume per well in the presence of 10 nM of Aurora-B or Aurora-A, 500 nM of NuMA substrate in the following buffer: 50 mM of NaCl, 5 mM MgCl2, (Aurora-B) or 10 mM MgCl2 (Aurora-A) and 1 mM of DTT at 37° C.
80 μL of enzyme/substrate incubation buffer is distributed in each well, followed by 10 μL of solution of compound to be measured with various concentrations. The reaction is started by adding 1 μM of ATP (final concentration) containing 0.2 μCi of [^33P] ATP (10 μL). After 30 minutes of incubation the reaction is stopped by removal of the reaction mixture and each well is washed twice with 300 μl of buffer Tris/HCl. The radioactivity is measured in each well using a Packard Top count scintillation counter instrument.
The enzymatic activity is expressed as counts per minute obtained in 30 minutes after subtraction of the background noise (reaction medium without enzyme). The measurement is expressed as percentage of inhibition of Aurora activity versus the control. To generate IC50 values, compounds of the invention are tested at different concentration and the percentage of inhibition are plotted as function of compound concentration, IC50s are calculated using the Xlfit 4 curve fitting software.

For orientation: IC50 means the midpoint of a concentration-inhibition curve. Take `COc1ccc2nc(Oc3ccc(C4C5=C(CCCC5=O)Nc5n[nH]cc54)o3)[nH]c2c1` (stereo not drawn) [Example 77, 4-[5-(6-Methoxy-1H-benzimidazol-2-yloxy)-furan-2-yl]-2,4,6,7,8,9-hexahydro-pyrazolo[3,4-b]quinolin-5-one; compound with trifluoro-acetic acid]: the half-inhibitory concentration (IC50) in assay [1] turned out to be 2480 nM; in assay [2], 473 nM.
`Cc1c[nH]c(Sc2ccc(C3C4=C(CCCC4=O)Nc4n[nH]cc43)o2)n1` (stereo not drawn) [Example 78, 4-[5-(4-methyl-1H-imidazol-2-ylsulfanyl)-furan-2-yl]-2,4,6,7,8,9-hexahydro-pyrazolo[3,4-b]quinolin-5-one; compound with trifluoro-acetic acid]: the 50% inhibitory concentration (IC50) in assay [1] was 331 nM; in assay [2] it was 121 nM.
As for `COc1ccc2[nH]c(Sc3ccc(C4C5=C(CCCC5=O)Nc5n[nH]cc54)o3)nc2c1` (stereo not drawn) [Example 79, 4-[5-(5-Methoxy-1H-benzimidazol-2-ylsulfanyl)-furan-2-yl]-2,4,6,7,8,9-hexahydro-pyrazolo[3,4-b]quinolin-5-one; compound with trifluoro-acetic acid], the results for the half-maximal inhibitory concentration (IC50) in assay [1] and in assay [2] were 70 nM and 15 nM, respectively.
The corresponding values for `COc1ccc2[nH]c(Sc3ccc(C4C5=C(CNCC5=O)Nc5n[nH]cc54)o3)nc2c1` (stereo not drawn) [Example 80, 4-[5-(5-Methoxy-1H-benzimidazol-2-ylsulfanyl)-furan-2-yl]-2,4,6,7,8,9-hexahydro-pyrazolo[3,4-b]-1,7-naphthyridin-5-one; compound with trifluoro-acetic acid] are 495 nM and 41 nM.
As for `COc1ccc2[nH]c(Sc3ccc(C4C5=C(CC(C)(C)CC5=O)Nc5n[nH]cc54)o3)nc2c1` (stereo not drawn) [Example 81, 4-[5-(5-Methoxy-1H-benzimidazol-2-ylsulfanyl)-furan-2-yl]-7,7-dimethyl-2,4,6,7,8,9-hexahydro-pyrazolo[3,4-b]quinolin-5-one], the IC50 in assay [1] worked out at 33 nM; in assay [2] it was 11 nM.
The corresponding values for `Cn1c(Sc2ccc(C3C4=C(CCCC4=O)Nc4n[nH]cc43)o2)nc2ccccc21` (stereo not drawn) [Example 82, 4-[5-(1-Methyl-1H-benzimidazol-2-ylsulfanyl)-furan-2-yl]-2,4,6,7,8,9-hexahydro-pyrazolo[3,4-b]quinolin-5-one; compound with trifluoro-acetic acid] are 1340 nM and 150 nM.
As for `Cn1c(Sc2ccc(C3C4=C(CC(C)(C)CC4=O)Nc4n[nH]cc43)o2)nc2ccccc21` (stereo not drawn) [Example 84, 7,7-Dimethyl-4-[5-(1-methyl-1H-benzimidazol-2-ylsulfanyl)-furan-2-yl]-2,4,6,7,8,9-hexahydro-pyrazolo[3,4-b]quinoline-5-one], the IC50 was found to be 947 nM in assay [1] and 177 nM in assay [2].
For `O=C1CCCC2=C1C(c1ccc(Sc3nc4cc(Cl)c(Cl)cc4[nH]3)o1)c1c[nH]nc1N2` (stereo not drawn) [Example 85, 4-[5-(5,6-Dichloro-1H-benzimidazol-2-ylsulfanyl)-furan-2-yl]-2,4,6,7,8,9-hexahydro-pyrazolo[3,4-b]quinolin-5-one; compound with trifluoro-acetic acid] the same measures were 22 nM and 9 nM.
The corresponding values for `O=C1CNCC2=C1C(c1ccc(Sc3nc4cc(Cl)c(Cl)cc4[nH]3)o1)c1c[nH]nc1N2` (stereo not drawn) [Example 86, 4-[5-(5,6-Dichloro-1H-benzoimidazol-2-ylsulfanyl)-furan-2-yl]-2,4,6,7,8,9-hexahydro-pyrazolo[3,4-b]-1,7-naphthyridin-5-one; compound with trifluoro-acetic acid] are 82 nM and 17 nM.
The corresponding values for `CC1(C)CC(=O)C2=C(C1)Nc1n[nH]cc1C2c1ccc(Sc2nc3cc(Cl)c(Cl)cc3[nH]2)o1` (stereo not drawn) [Example 87, 4-[5-(5,6-Dichloro-1H-benzoimidazol-2-ylsulfanyl)-furan-2-yl]-7,7-dimethyl-2,4,6,7,8,9-hexahydro-pyrazolo[3,4-b]quinolin-5-one] are 22 nM and 8 nM.
Consider `O=C1CCCC2=C1C(c1ccc(Sc3nc4cc(Cl)ccc4o3)o1)c1c[nH]nc1N2` (stereo not drawn) [Example 88, 4-[5-(5-Chloro-benzoxazol-2-ylsulfanyl)-furan-2-yl]-2,4,6,7,8,9-hexahydro-pyrazolo[3,4-b]quinolin-5-one; compound with trifluoro-acetic acid], for which the IC50 in assay [1] was found to be 362 nM; in assay [2], 91 nM.
The corresponding values for `CCOC(=O)c1[nH]cc2c1NC1=C(C(=O)CCC1)C2c1ccc(Sc2nc3cc(O)ccc3[nH]2)o1` (stereo not drawn) [Example 89, 9-[5-(5-Hydroxy-1H-benzoimidazol-2-ylsulfanyl)-furan-2-yl]-8-oxo-4,5,6,7,8,9-hexahydro-2H-pyrrolo[3,4-b]quinoline-3-carboxylic acid ethyl ester] are 355 nM and 31 nM.
The corresponding values for `CC1(C)CC(=O)C2=C(C1)Nc1n[nH]cc1C2c1ccc(Sc2nc3cc(Cl)ccc3o2)o1` (stereo not drawn) [Example 90, 4-[5-(5-Chloro-benzoxazol-2-ylsulfanyl)-furan-2-yl]-7,7-dimethyl-2,4,6,7,8,9-hexahydro-pyrazolo[3,4-b]quinoline-5-one] are 670 nM and 194 nM.
Take `Cc1c[nH]c(Sc2ccc(C3C4=C(CC(C)(C)CC4=O)Nc4n[nH]cc43)o2)n1` (stereo not drawn) [Example 91, 7,7-Dimethyl-4-[5-(4-methyl-1H-imidazol-2-ylsulfanyl)-furan-2-yl]-2,4,6,7,8,9-hexahydro-pyrazolo[3,4-b]quinolin-5-one; compound with trifluoro-acetic acid]: the IC50 in assay [1] was found to be 156 nM; in assay [2], 86 nM.
On to `Cn1c(-c2ccc(Cl)cc2)cnc1Sc1ccc(C2C3=C(CCCC3=O)Nc3n[nH]cc32)o1` (stereo not drawn) [Example 92, 4-{5-[5-(4-Chloro-phenyl)-1-methyl-1H-imidazol-2-ylsulfanyl]-furan-2-yl}-2,4,6,7,8,9-hexahydro-pyrazolo[3,4-b]quinolin-5-one], for which the IC50 was 2090 nM in assay [1] and 233 nM in assay [2].
For `Cn1c(-c2ccc(Cl)cc2)cnc1Sc1ccc(C2C3=C(CC(C)(C)CC3=O)Nc3n[nH]cc32)o1` (stereo not drawn) [Example 93, 4-{5-[5-(4-Chloro-phenyl)-1-methyl-1H-imidazol-2-ylsulfanyl]-furan-2-yl}-7,7-dimethyl-2,4,6,7,8,9-hexahydro-pyrazolo[3,4-b]quinolin-5-one], the IC50 in assay [1] worked out at 1360 nM; in assay [2] it was 156 nM.
The corresponding values for `Cn1c(-c2ccc(Cl)cc2)cnc1Sc1ccc(C2C3=C(CNCC3=O)Nc3n[nH]cc32)o1` (stereo not drawn) [Example 94, 4-{5-[5-(4-Chloro-phenyl)-1-methyl-1H-imidazol-2-ylsulfanyl]-furan-2-yl}-2,4,6,7,8,9-hexahydro-pyrazolo[3,4-b]-1,7-naphthyridin-5-one; compound with trifluoro-acetic acid] are 9810 nM and 1220 nM.
Turning to `O=C1CCCC2=C1C(c1ccc(Sc3nc4cc(C(F)(F)F)ccc4[nH]3)o1)c1cn[nH]c1N2` (stereo not drawn) [Example 95, 4-[5-(5-Trifluoromethyl-1H-benzimidazol-2-ylsulfanyl)-furan-2-yl]-1,4,6,7,8,9-hexahydro-pyrazolo[3,4-b]quinolin-5-one], the figures for the concentration for half-maximal inhibition (IC50) in assay [1] and in assay [2] were 61 nM and 9 nM, respectively.
